Assay results published in US6150385A, “1,3,4-thiadiazoles useful for the treatment of CMV infections” (Pharmacia & Upjohn Company, priority 1999, dated 2000).

Target: T1, HCMV polymerase (Human cytomegalovirus, UniProt P08546)
T1 construct: made in house; host or cells: SF-9 insect cells infected with recombinant baculovirus
Experiment: HCMV polymerase assay (scintillation proximity assay)
Type: biochemical
Settings: percentage of inhibition at 25 μM concentration in CMV polymerase assay
In short: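 Baculovirus/SF-9-expressed HCMV polymerase in 5.4 mM HEPES pH 7.5, 11.7 mM KCl, 4.5 mM MgCl2, 0.36 mg/ml BSA, 90 nM 3H-dTTP, with or without 2 mM CHAPS. Started with 6 nM biotinylated poly(dA)-oligo(dT), 30 min at 25 or 37 °C, EDTA-stopped, read by streptavidin-SPA counting; % inhibition at 25 μM.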

T1 sequence (P08546 whole entry): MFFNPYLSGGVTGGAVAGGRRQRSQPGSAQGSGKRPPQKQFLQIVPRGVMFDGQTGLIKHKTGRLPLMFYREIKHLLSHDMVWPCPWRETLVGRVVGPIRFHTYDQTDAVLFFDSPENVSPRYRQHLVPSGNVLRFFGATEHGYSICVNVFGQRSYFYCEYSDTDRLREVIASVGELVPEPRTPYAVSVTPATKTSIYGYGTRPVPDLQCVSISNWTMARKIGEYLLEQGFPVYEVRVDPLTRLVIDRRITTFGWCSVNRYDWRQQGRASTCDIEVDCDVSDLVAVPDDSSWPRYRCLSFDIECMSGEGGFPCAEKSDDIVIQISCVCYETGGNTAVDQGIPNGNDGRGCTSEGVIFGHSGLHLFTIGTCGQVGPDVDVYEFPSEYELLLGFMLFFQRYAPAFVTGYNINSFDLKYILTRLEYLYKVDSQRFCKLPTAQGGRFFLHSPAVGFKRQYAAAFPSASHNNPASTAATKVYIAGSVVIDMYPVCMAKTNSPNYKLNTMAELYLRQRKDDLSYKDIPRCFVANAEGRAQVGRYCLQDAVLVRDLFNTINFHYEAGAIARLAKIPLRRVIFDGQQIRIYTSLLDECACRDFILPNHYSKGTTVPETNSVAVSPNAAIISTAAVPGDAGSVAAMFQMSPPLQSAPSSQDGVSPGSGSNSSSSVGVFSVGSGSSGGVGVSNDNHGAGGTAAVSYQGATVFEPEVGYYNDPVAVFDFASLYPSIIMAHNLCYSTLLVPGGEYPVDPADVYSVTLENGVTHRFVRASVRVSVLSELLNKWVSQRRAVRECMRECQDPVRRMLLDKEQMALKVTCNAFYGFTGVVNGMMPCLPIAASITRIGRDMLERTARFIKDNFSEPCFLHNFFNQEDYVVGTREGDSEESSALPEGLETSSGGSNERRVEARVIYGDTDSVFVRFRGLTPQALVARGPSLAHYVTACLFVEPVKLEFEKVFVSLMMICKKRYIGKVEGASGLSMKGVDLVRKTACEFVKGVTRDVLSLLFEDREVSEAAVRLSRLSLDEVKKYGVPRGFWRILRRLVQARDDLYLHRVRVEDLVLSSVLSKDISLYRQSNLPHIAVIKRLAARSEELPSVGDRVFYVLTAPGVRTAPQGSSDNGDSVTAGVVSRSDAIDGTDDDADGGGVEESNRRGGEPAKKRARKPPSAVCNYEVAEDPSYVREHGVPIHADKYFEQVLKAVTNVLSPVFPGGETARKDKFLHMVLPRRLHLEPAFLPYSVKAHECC

inhibition at 25 µM [%] | SMILES
27.4 | CC(C)c1cc(C(C)C)c(C(=O)Nc2nnc(NCCCN3CCCC3=O)s2)c(C(C)C)c1 [compound 381, 2,4,6-triisopropyl-N-(5-{[3-(2-oxo-1-pyrrolidinyl)propyl]amino}-1,3,4-thiadiazol-2-yl)benzamide]
26.6 | CC(C)c1cc(C(C)C)c(C(=O)Nc2nnc(NCCC(=O)OC(C)(C)C)s2)c(C(C)C)c1 [compound 388, tert-butyl 3-({5-[(2,4,6-triisopropylbenzoyl)amino]-1,3,4-thiadiazol-2-yl}amino)propanoate]
26.2 | CC(C)(C)CNc1nnc(NC(=O)c2c(Cl)cccc2Cl)s1 [compound 392, 2,6-dichloro-N-[5-(neopentylamino)-1,3,4-thiadiazol-2-yl]benzamide]
25.9 | Cc1ccc(C(=O)Nc2nnc(NCCCN3CCCC3=O)s2)cc1 [compound 395, 4-methyl-N-(5-{[3-(2-oxo-1-pyrrolidinyl)propyl]amino}-1,3,4-thiadiazol-2-yl)benzamide]
25.9 | CC(C)c1cc(C(C)C)c(C(=O)Nc2nnc(NCCc3cccs3)s2)c(C(C)C)c1 [compound 396, 2,4,6-triisopropyl-N-(5-{[2-(2-thienyl)ethyl]amino}-1,3,4-thiadiazol-2-yl)benzamide]
25.8 | CC(C)c1cc(C(C)C)c(C(=O)Nc2nnc(NCc3cccnc3)s2)c(C(C)C)c1 [compound 399, 2,4,6-triisopropyl-N-{5-[(3-pyridinylmethyl)amino]-1,3,4-thiadiazol-2-yl}benzamide]
25.5 | CC(C)c1cc(C(C)C)c(C(=O)Nc2nnc(NCc3ccc(F)cc3)s2)c(C(C)C)c1 [compound 401, N-{5-[(4-fluorobenzyl)amino]-1,3,4-thiadiazol-2-yl}-2,4,6-triisopropylbenzamide]
25 | CC(C)(C)OC(=O)CCNc1nnc(NC(=O)c2ccc(C(F)(F)F)cc2)s1 [compound 407, tert-butyl 3-[(5-{[4-(trifluoromethyl)benzoyl]amino}-1,3,4-thiadiazol-2-yl)amino]propanoate]
24.9 | O=C(Nc1nnc(NCCNc2ccccc2)s1)c1ccc(Cl)c(Cl)c1 [compound 408, N-{5-[(2-anilinoethyl)amino]-1,3,4-thiadiazol-2-yl}-3,4-dichlorobenzamide]
24.9 | CC(C)c1cc(C(C)C)c(C(=O)Nc2nnc(NCC3CCCCC3)s2)c(C(C)C)c1 [compound 409, N-{5-[(cyclohexylmethyl)amino]-1,3,4-thiadiazol-2-yl}-2,4,6-triisopropylbenzamide]
24.8 | O=C(Nc1nnc(NCCc2ccccc2)s1)c1cccc([N+](=O)[O-])c1 [compound 411, 3-nitro-N-[5-(phenethylamino)-1,3,4-thiadiazol-2-yl]benzamide]
24.7 | CC(=O)NCCNc1nnc(NC(=O)c2cc3ccccc3s2)s1 [compound 412, N-(5-{[2-(acetylamino)ethyl]amino}-1,3,4-thiadiazol-2-yl)-1-benzothiophene-2-carboxamide]

The remaining lines, values behind:

SMILES | inhibition at 25 µM [%]
CCCCCCCC/C=C/CCCCCCCC(=O)Nc1nnc(NCCCn2ccnc2)s1 [compound 378, (E)-N-(5-{[3-(1H-imidazol-1-yl)propyl]amino}-1,3,4-thiadiazol-2-yl)-9-octadecenamide] | 27.8
O=C(/C=C/c1ccccc1)Nc1nnc(NCCNc2ccccc2)s1 [compound 379, (E)-N-{5-[(2-anilinoethyl)amino]-1,3,4-thiadiazol-2-yl}-3-phenyl-2-propenamide] | 27.5
O=C(Nc1nnc(NCC2CCCCC2)s1)c1ccc([N+](=O)[O-])o1 [compound 380, N-{5-[(cyclohexylmethyl)amino]-1,3,4-thiadiazol-2-yl}-5-nitro-2-furamide] | 27.5
O=C(CCCCCl)Nc1nnc(NCCCCc2ccccc2)s1 [compound 382, 5-chloro-N-{5-[(4-phenylbutyl)amino]-1,3,4-thiadiazol-2-yl}pentanamide] | 27.3
COc1ccccc1C(=O)Nc1nnc(NCCC(c2ccccc2)c2ccccc2)s1 [compound 383, N-{5-[(3,3-diphenylpropyl)amino]-1,3,4-thiadiazol-2-yl}-2-methoxybenzamide] | 27.3
O=C(Nc1nnc(NCC2CCCCC2)s1)c1ccc(Cl)c(Cl)c1 [compound 384, 3,4-dichloro-N-{5-[(cyclohexylmethyl)amino]-1,3,4-thiadiazol-2-yl}benzamide] | 27.2
O=C(Nc1nnc(NCC(c2ccccc2)c2ccccc2)s1)c1ccc(Br)cc1 [compound 385, 4-bromo-N-{5-[(2,2-diphenylethyl)amino]-1,3,4-thiadiazol-2-yl}benzamide] | 27.2
O=C(Nc1nnc(NCCC(c2ccccc2)c2ccccc2)s1)c1ccc(Br)cc1 [compound 386, 4-bromo-N-{5-[(3,3-diphenylpropyl)amino]-1,3,4-thiadiazol-2-yl}benzamide] | 26.9
COc1ccccc1C(=O)Nc1nnc(NCCCNC2CCCCC2)s1 [compound 387, N-(5-{[3-(cyclohexylamino)propyl]amino}-1,3,4-thiadiazol-2-yl)-2-methoxybenzamide] | 26.8
CC1(C)C2CC[C@@H](CNc3nnc(NC(=O)c4cc(F)cc(F)c4)s3)C1C2 (stereo partly drawn) [compound 389, N-[5-({[(2R)-6,6-dimethylbicyclo[3.1.1]hept-2-yl]methyl}amino)-1,3,4-thiadiazol-2-yl]-3,5-difluorobenzamide] | 26.5
NS(=O)(=O)c1ccc(CCNc2nnc(NC(=O)CCCCCl)s2)cc1 [compound 390, N-(5-{[4-(aminosulfonyl)phenethyl]amino}-1,3,4-thiadiazol-2-yl)-5-chloropentanamide] | 26.3
CCCCCCCC/C=C/CCCCCCCC(=O)Nc1nnc(NCCc2c[nH]cn2)s1 [compound 391, (E)-N-(5-{[2-(1H-imidazol-4-yl)ethyl]amino}-1,3,4-thiadiazol-2-yl)-9-octadecenamide] | 26.2
Cc1ccc(C(=O)Nc2nnc(NCCNc3ccccc3)s2)cc1 [compound 393, N-{5-[(2-anilinoethyl)amino]-1,3,4-thiadiazol-2-yl}-4-methylbenzamide] | 26.1
COc1ccccc1C(=O)Nc1nnc(NCCNc2ccccc2)s1 [compound 394, N-{5-[(2-anilinoethyl)amino]-1,3,4-thiadiazol-2-yl}-2-methoxybenzamide] | 26
O=C(/C=C/c1ccccc1Cl)Nc1nnc(NCCN2CCCC2)s1 [compound 397, (E)-3-(2-chlorophenyl)-N-(5-{[2-(1-pyrrolidinyl)ethyl]amino}-1,3,4-thiadiazol-2-yl)-2-propenamide] | 25.9
NS(=O)(=O)c1ccc(CNc2nnc(NC(=O)c3ccc(C(F)(F)F)cc3)s2)cc1 [compound 398, N-(5-{[4-(aminosulfonyl)benzyl]amino}-1,3,4-thiadiazol-2-yl)-4-(trifluoromethyl)benzamide] | 25.9
CC(=O)NCCNc1nnc(NC(=O)/C=C/c2ccccc2)s1 [compound 400, (E)-N-(5-{[2-(acetylamino)ethyl]amino}-1,3,4-thiadiazol-2-yl)-3-phenyl-2-propenamide] | 25.8
O=C(Nc1nnc(NCc2cccc3ccccc23)s1)c1ccc(I)cc1 [compound 402, 4-iodo-N-{5-[(1-naphthylmethyl)amino]-1,3,4-thiadiazol-2-yl}benzamide] | 25.5
CC1(C)C2CC[C@@H](CNc3nnc(NC(=O)c4cc5ccccc5s4)s3)C1C2 (stereo partly drawn) [compound 403, N-[5-({[(2R)-6,6-dimethylbicyclo[3.1.1]hept-2-yl]methyl}amino)-1,3,4-thiadiazol-2-yl]-1-benzothiophene-2-carboxamide] | 25.3
O=C(Nc1nnc(NC2CCc3ccccc32)s1)c1ccc([N+](=O)[O-])o1 (stereo not shown) [compound 404, N-[5-(2,3-dihydro-1H-inden-1-ylamino)-1,3,4-thiadiazol-2-yl]-5-nitro-2-furamide] | 25.2
O=C(Nc1nnc(NCC2CCCO2)s1)c1cc2ccccc2s1 (stereo not shown) [compound 405, N-{5-[(tetrahydro-2-furanylmethyl)amino]-1,3,4-thiadiazol-2-yl}-1-benzothiophene-2-carboxamide] | 25
CCSCCNc1nnc(NC(=O)c2ccc(C(F)(F)F)cc2)s1 [compound 406, N-(5-{[2-(ethylsulfanyl)ethyl]amino}-1,3,4-thiadiazol-2-yl)-4-(trifluoromethyl)benzamide] | 25
CCCCCCCCCCCNc1nnc(NC(=O)c2c(Cl)cccc2Cl)s1 [compound 410, 2,6-dichloro-N-[5-(undecylamino)-1,3,4-thiadiazol-2-yl]benzamide] | 24.9
O=C(Nc1nnc(NCCCCc2ccccc2)s1)c1cccc([N+](=O)[O-])c1 [compound 413, 3-nitro-N-{5-[(4-phenylbutyl)amino]-1,3,4-thiadiazol-2-yl}benzamide] | 24.7
COc1ccccc1C(=O)Nc1nnc(NCc2ccc3c(c2)OCO3)s1 [compound 414, N-{5-[(1,3-benzodioxol-5-ylmethyl)amino]-1,3,4-thiadiazol-2-yl}-2-methoxybenzamide] | 24.7
O=C(Nc1nnc(NCCc2ccccc2)s1)c1ccc(I)cc1 [compound 415, 4-iodo-N-[5-(phenethylamino)-1,3,4-thiadiazol-2-yl]benzamide] | 24.6
O=C(Nc1nnc(NCc2ccc(Cl)c(Cl)c2)s1)c1ccc(F)cc1F [compound 416, N-{5-[(3,4-dichlorobenzyl)amino]-1,3,4-thiadiazol-2-yl}-2,4-difluorobenzamide] | 24.5
O=C(Nc1nnc(NCc2cccnc2)s1)c1ccc(Cl)c(Cl)c1 [compound 417, 3,4-dichloro-N-{5-[(3-pyridinylmethyl)amino]-1,3,4-thiadiazol-2-yl}benzamide] | 24.4
